Target: T1, P2X7 receptor (Homo sapiens, UniProt Q99572)
T1 construct: host or cells: THP-1 cells differentiated with LPS and IFN-γ
T1 sequence (Q99572 1-595): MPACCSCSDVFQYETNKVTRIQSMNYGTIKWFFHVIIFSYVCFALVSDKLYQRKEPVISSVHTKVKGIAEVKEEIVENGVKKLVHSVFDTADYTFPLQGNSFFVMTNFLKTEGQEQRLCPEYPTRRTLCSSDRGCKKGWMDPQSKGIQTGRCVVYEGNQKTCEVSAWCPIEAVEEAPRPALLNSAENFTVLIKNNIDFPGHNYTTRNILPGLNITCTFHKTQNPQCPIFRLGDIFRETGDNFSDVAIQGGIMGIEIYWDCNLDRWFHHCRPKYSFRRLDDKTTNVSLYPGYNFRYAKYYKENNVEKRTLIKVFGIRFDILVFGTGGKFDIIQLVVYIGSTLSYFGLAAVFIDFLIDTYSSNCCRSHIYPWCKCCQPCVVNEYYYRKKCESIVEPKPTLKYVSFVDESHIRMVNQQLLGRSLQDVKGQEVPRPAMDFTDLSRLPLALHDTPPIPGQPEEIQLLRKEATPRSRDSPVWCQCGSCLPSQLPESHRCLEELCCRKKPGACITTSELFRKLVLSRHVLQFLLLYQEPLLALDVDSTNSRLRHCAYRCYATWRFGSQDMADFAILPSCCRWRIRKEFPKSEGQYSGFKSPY
Experiment: IL-1β release assay in differentiated THP-1 cells stimulated with BzATP (Example 9)
Assay type: cell-based
Conditions: differentiated THP-1 cells, BzATP 250 uM; for inhibition at 0.3 µM: 0.3 μM compound, symbols + to ++++, read-out: IL-1β % Inhib. @ 0.3 μM; for inhibition at 0.1 µM: 0.1 μM compound, symbols * to ****, read-out: IL-1β % Inhib. (asterisk symbols: at 0.1 μM)
Method in brief: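 THP-1 cells differentiated 16 h with LPS and IFN-γ (100 ng/mL each), re-primed 2 h with LPS, then compound-pretreated 30 min before 250 uM BzATP for 45 min. Supernatant IL-1β quantified by ELISA; background-adjusted percent inhibition fitted to four-parameter logistic for IC50.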

inhibition at 0.3 µM	inhibition at 0.1 µM	SMILES
0 to 25%	–	Cc1ccc(Cl)c(C(=O)Nc2cccc3c(=O)n(CCN4CCOCC4)ccc23)c1 [Compound 1235]
0 to 25%	–	Cc1ccc(Cl)cc1C(=O)Nc1cccc2c(=O)n(CCN3CCOCC3)ccc12 [Compound 1236]
26 to 50%	–	Cc1cccc(CCC(=O)Nc2cccc3c(=O)n(CCN4CCOCC4)ccc23)c1 [Compound 1237]
26 to 50%	–	O=C(Nc1cccc2c(=O)n(CCN3CCOCC3)ccc12)c1cc2cc(Cl)ccc2o1 [Compound 1238]
0 to 25%	–	Cc1cccc(C(=O)Nc2cccc3c(=O)n(CCN4CCOCC4)ccc23)c1Cl [Compound 1239]
26 to 50%	–	COc1ccc(C(=O)Nc2cccc3c(=O)n(CCN4CCOCC4)ccc23)cc1C [Compound 1240]
0 to 25%	–	Cc1ccc(CCC(=O)Nc2cccc3c(=O)n(CCN4CCOCC4)ccc23)c(C)c1 [Compound 1241]
26 to 50%	–	O=C(CCc1cccc(Cl)c1)Nc1cccc2c(=O)n(CCN3CCOCC3)ccc12 [Compound 1242]
0 to 25%	–	CC(C)Cc1ccc(C(=O)Nc2cccc3c(=O)n(CCN4CCOCC4)ccc23)cc1 [Compound 1243]
0 to 25%	–	CC(C)(C)Cn1ccc2c(NC(=O)c3ccccc3Cl)cccc2c1=O [Compound 1244]
–	0 to 25%	COc1cc(OC)cc(C(=O)Nc2cccc3c(=O)n(CC(C)(C)C)ccc23)c1 [Compound 1245]
–	0 to 25%	Cc1cccc(C(=O)Nc2cccc3c(=O)n(CC(C)(C)C)ccc23)c1 [Compound 1246]
–	0 to 25%	CC(C(=O)Nc1cccc2c(=O)n(CC(C)(C)C)ccc12)c1ccccc1 (centres unmarked) [Compound 1247]
0 to 25%	–	COc1ccccc1CCC(=O)Nc1cccc2c(=O)n(CC(C)(C)C)ccc12 [Compound 1248]
0 to 25%	–	CC(C)(C)Cn1ccc2c(NC(=O)c3cccc4ccccc34)cccc2c1=O [Compound 1249]
0 to 25%	–	CC(C)(C)Cn1ccc2c(NC(=O)Cc3cccc4ccccc34)cccc2c1=O [Compound 1250]
0 to 25%	–	CC(C)(C)Cn1ccc2c(NC(=O)c3ccc4ccccc4c3)cccc2c1=O [Compound 1251]
0 to 25%	–	CC(C)(C)Cn1ccc2c(NC(=O)Cc3ccccc3F)cccc2c1=O [Compound 1252]

inhibition at 0.3 µM	inhibition at 0.1 µM	SMILES
0 to 25%	–	CC(C)(C)Cn1ccc2c(NC(=O)Cc3ccccc3Cl)cccc2c1=O [Compound 1253]
0 to 25%	–	COc1ccccc1CC(=O)Nc1cccc2c(=O)n(CC(C)(C)C)ccc12 [Compound 1254]
0 to 25%	–	Cc1ccccc1CC(=O)Nc1cccc2c(=O)n(CC(C)(C)C)ccc12 [Compound 1256]
0 to 25%	–	COc1cccc(CC(=O)Nc2cccc3c(=O)n(CC(C)(C)C)ccc23)c1 [Compound 1257]
0 to 25%	–	COc1ccc(CC(=O)Nc2cccc3c(=O)n(CC(C)(C)C)ccc23)cc1OC [Compound 1258]
0 to 25%	–	Cc1cccc(CC(=O)Nc2cccc3c(=O)n(CC(C)(C)C)ccc23)c1 [Compound 1259]
0 to 25%	–	COc1ccc(CC(=O)Nc2cccc3c(=O)n(CC(C)(C)C)ccc23)cc1 [Compound 1260]
0 to 25%	–	CCOc1ccc(CC(=O)Nc2cccc3c(=O)n(CC(C)(C)C)ccc23)cc1 [Compound 1261]
0 to 25%	–	Cc1ccc(CC(=O)Nc2cccc3c(=O)n(CC(C)(C)C)ccc23)cc1 [Compound 1262]
0 to 25%	–	CC(C)(C)Cn1ccc2c(NC(=O)CCCc3ccccc3)cccc2c1=O [Compound 1263]
0 to 25%	–	CC(C)(C)Cn1ccc2c(NC(=O)c3cc4ccccc4o3)cccc2c1=O [Compound 1264]
26 to 50%	–	CC(C)(C)Cn1ccc2c(NC(=O)Cc3ccc4c(c3)OCO4)cccc2c1=O [Compound 1265]
0 to 25%	–	COc1cc(CC(=O)Nc2cccc3c(=O)n(CC(C)(C)C)ccc23)cc(OC)c1 [Compound 1266]
0 to 25%	–	COc1c(C)cc(C(=O)Nc2cccc3c(=O)n(CC(C)(C)C)ccc23)cc1C [Compound 1267]
0 to 25%	–	Cc1ccc(C(=O)Nc2cccc3c(=O)n(CC(C)(C)C)ccc23)cc1Cl [Compound 1268]
0 to 25%	–	Cc1cc(Cl)ccc1C(=O)Nc1cccc2c(=O)n(CC(C)(C)C)ccc12 [Compound 1269]
0 to 25%	–	CC(C)(C)Cn1ccc2c(NC(=O)CC3CC4CC[C@H]3C4)cccc2c1=O (some centres unmarked) [Compound 1270]
